The source made the active and inactive calls. No cut-off for these calls is given here.
Tested on: MOLT-4
Test: Radioprotective activity against gamma-irradiated human MOLT4 cells preincubated for 1 hr at 100 to 400 uM before gamma-irradiation measured after 18 hrs by erythrosine B dye-exclusion test
Type: functional, cell-based
Settings: not given

| Compound | Activity |
| --- | --- |
| Cc1ccc2c(S(N)(=O)=O)cc(S(N)(=O)=O)c(O)c2n1 | inactive |
| c1ccc2ncccc2c1 | inactive |
| CNS(=O)(=O)c1cc(S(=O)(=O)NC)c2cccnc2c1O | Active |
| CNS(=O)(=O)c1cc(S(=O)(=O)NC)c2ccc(C)nc2c1O | Active |
| Oc1cccc2ccccc12 | inactive |
| CN(C)S(=O)(=O)c1ccc2c(S(=O)(=O)N(C)C)cc(S(=O)(=O)N(C)C)c(O)c2c1 | inactive |
| CN(C)S(=O)(=O)c1cc(Br)c(O)c2ncccc12 | Active |
| Cc1ccc2cccc(O)c2n1 | Active |
| Cc1ccc2c(S(=O)(=O)N(C)C)cc(Br)c(O)c2n1 | Active |
| Oc1ccc(Cl)c2ccccc12 | inactive |
| Cc1ccc2c(S(=O)(=O)N3CCCNCC3)cc(S(=O)(=O)N3CCCNCC3)c(O)c2n1 | Active |
| CN(C)S(=O)(=O)c1ccc(O)c2ncccc12 | Active |
| c1ccc2cnccc2c1 | inactive |
| Cc1ccc2c(S(=O)(=O)N(C)C)ccc(O)c2n1 | Active |
| Cc1ccc2c(S(=O)(=O)NCCN)cc(S(=O)(=O)NCCN)c(O)c2n1 | inactive |
| Cc1ccc2c(S(=O)(=O)N3CCNCC3)cc(S(=O)(=O)N3CCNCC3)c(O)c2n1 | Active |

Tested on: MOLT-4
Test: Cytotoxicity against human MOLT4 cells at 100 to 400 uM after 18 hrs by erythrosine B dye-exclusion test
Type: cell-based
Settings: molt-4, 18 h

| Compound | Activity |
| --- | --- |
| COc1ccc(S(=O)(=O)N(C)C)c2ccc(C)nc12 | Non-toxic |
| COc1c(I)cc(S(=O)(=O)N(C)C)c2ccc(C)nc12 | Toxic |
| CCOc1c(S(=O)(=O)N(CC)CC)cc(S(=O)(=O)N(CC)CC)c2ccc(C)nc12 | Toxic |
| CNS(=O)(=O)c1cc(S(=O)(=O)NC)c2ccc(C)nc2c1O | Non-toxic |
| CCN(CC)S(=O)(=O)c1cc(S(=O)(=O)N(CC)CC)c2ccc(C)nc2c1OC | Toxic |
| CCOc1c(Br)cc(S(=O)(=O)N(C)C)c2ccc(C)nc12 | Toxic |
| CCN(CC)S(=O)(=O)c1cc(S(=O)(=O)N(CC)CC)c2ccc(C)nc2c1O | Toxic |
| Cc1ccc2c(S(=O)(=O)N(C)C)cc(Br)c(O)c2n1 | Non-toxic |
| COc1c(Br)cc(S(=O)(=O)N(C)C)c2ccc(C)nc12 | Toxic |
| CCOc1c(I)cc(S(=O)(=O)N(C)C)c2ccc(C)nc12 | Toxic |
| CCCNS(=O)(=O)c1cc(S(=O)(=O)NCCC)c2ccc(C)nc2c1O | Toxic |
| Cc1ccc2c(S(=O)(=O)N(C)C)ccc(O)c2n1 | Non-toxic |
| Oc1ccc(Cl)c2cccnc12 [CLOXYQUIN] | Toxic |
| Cc1ccc2c(S(=O)(=O)N(C)C)cc(S(=O)(=O)N(C)C)c(O)c2n1 | Toxic |
| CNS(=O)(=O)c1ccc(OC)c2nc(C)ccc12 | Non-toxic |
| Oc1cccc2cccnc12 [OXYQUINOLINE] | Toxic |
| COc1c(S(=O)(=O)N(C)C)cc(S(=O)(=O)N(C)C)c2ccc(C)nc12 | Non-toxic |

Tested on: Jurkat
Test: Radioprotective activity against gamma-irradiated p53-inactive human Jurkat cells at after 18 hrs by erythrosine B dye-exclusion test
Type: functional, cell-based
Settings: not given

| Compound | Activity |
| --- | --- |
| CNS(=O)(=O)c1cc(S(=O)(=O)NC)c2ccc(C)nc2c1O | inactive |
| COc1c(S(=O)(=O)N(C)C)cc(S(=O)(=O)N(C)C)c2ccc(C)nc12 | inactive |

Tested on: MOLT-4
Test: Inhibition of apoptosis in gamma-irradiated human MOLT4 cells preincubated for 1 hr at 100 to 400 uM before gamma-irradiation measured after 18 hrs by erythrosine B dye-exclusion test
Type: functional, cell-based
Settings: not given

| Compound | apoptosis inhibition (active/inactive) |
| --- | --- |
| COc1ccc(S(=O)(=O)N(C)C)c2ccc(C)nc12 | Active |
| COc1c(I)cc(S(=O)(=O)N(C)C)c2ccc(C)nc12 | Active |
| CCN(CC)S(=O)(=O)c1cc(S(=O)(=O)N(CC)CC)c2ccc(C)nc2c1OC | Active |
| CCOc1c(S(=O)(=O)N(C)C)cc(S(=O)(=O)N(C)C)c2ccc(C)nc12 | Active |
| CNS(=O)(=O)c1cc(S(=O)(=O)NC)c2ccc(C)nc2c1OC | Active |
| COc1c(Br)cc(S(=O)(=O)N(C)C)c2ccc(C)nc12 | Active |
| CCOc1ccc(S(=O)(=O)N(C)C)c2ccc(C)nc12 | Active |
| CNS(=O)(=O)c1ccc(OC)c2nc(C)ccc12 | Active |
| COc1c(S(=O)(=O)N(C)C)cc(S(=O)(=O)N(C)C)c2ccc(C)nc12 | Active |

Tested on: Jurkat
Test: Cytotoxicity against p53-inactive human Jurkat cells at after 18 hrs by erythrosine B dye-exclusion test
Type: cell-based
Settings: not given

| Compound | Activity |
| --- | --- |
| CNS(=O)(=O)c1cc(S(=O)(=O)NC)c2ccc(C)nc2c1O | Non-toxic |
| COc1c(S(=O)(=O)N(C)C)cc(S(=O)(=O)N(C)C)c2ccc(C)nc12 | Non-toxic |

Tested on: MOLT-4
Test: Radioprotective activity against gamma-irradiated human MOLT4 cells preincubated for 1 hr before gamma-irradiation measured after 18 hrs by erythrosine B dye-exclusion test
Type: functional, cell-based
Settings: not given

| Compound | Activity |
| --- | --- |
| CNS(=O)(=O)c1cc(S(=O)(=O)NC)c2cccnc2c1O | Dose-dependent effect |
| CNS(=O)(=O)c1cc(S(=O)(=O)NC)c2ccc(C)nc2c1O | Dose-dependent effect |

Biological target: Cellular tumor antigen p53 (Homo sapiens) (UniProt P04637)
Sequence (P04637 whole entry, looked up): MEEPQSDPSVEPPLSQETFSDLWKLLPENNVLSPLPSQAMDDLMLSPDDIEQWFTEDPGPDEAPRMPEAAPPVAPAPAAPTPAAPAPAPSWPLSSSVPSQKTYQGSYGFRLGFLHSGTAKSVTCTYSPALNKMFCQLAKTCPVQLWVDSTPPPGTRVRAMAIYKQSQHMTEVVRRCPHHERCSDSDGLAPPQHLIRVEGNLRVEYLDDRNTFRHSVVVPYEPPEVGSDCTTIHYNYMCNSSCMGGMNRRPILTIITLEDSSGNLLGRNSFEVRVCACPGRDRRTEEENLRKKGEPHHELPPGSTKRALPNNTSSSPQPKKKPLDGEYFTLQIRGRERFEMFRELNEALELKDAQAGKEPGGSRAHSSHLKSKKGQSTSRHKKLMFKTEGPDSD
Test: Inhibition of recombinant FLAG-p53 (unknown origin) binding to FITC-labeled double-stranded oligonucleotide measured after 3 hrs by EMSA in presence of zinc(II) chelators
Settings: not given

| Compound | inhibition |
| --- | --- |
| CNS(=O)(=O)c1cc(S(=O)(=O)NC)c2ccc(C)nc2c1O | inactive |
| COc1c(S(=O)(=O)N(C)C)cc(S(=O)(=O)N(C)C)c2ccc(C)nc12 | inactive |

Tested on: MOLT-4
Test: Radioprotective activity against gamma-irradiated human MOLT4 cells preincubated for 1 hr at <50 uM before gamma-irradiation measured after 18 hrs by erythrosine B dye-exclusion test
Type: functional, cell-based
Settings: not given

| Compound | Activity |
| --- | --- |
| O=C1O[C@H]([C@@H](O)CO)C(O)=C1O | Active |
| c1ccc(CNCCNCc2ccccn2)nc1 | Active |
| CNS(=O)(=O)c1cc(S(=O)(=O)NC)c2cccnc2c1O | inactive |
| VITAMIN E | Active |
| c1ccc(CN(CCN(Cc2ccccn2)Cc2ccccn2)Cc2ccccn2)nc1 | Active |
| COc1cc(/C=C/C(=O)CC(=O)/C=C/c2ccc(O)c(OC)c2)ccc1O | Active |
| Oc1ccc(Cl)c2cccnc12 [CLOXYQUIN] | Active |
| Oc1cccc2cccnc12 [OXYQUINOLINE] | Active |

Tested on: not listed separately
Test: Antioxidant activity assessed as DPPH free radical scavenging activity by UV-vis spectrophotometry
Type: physicochemical
Settings: not given

| Compound | Activity |
| --- | --- |
| CNS(=O)(=O)c1cc(S(=O)(=O)NC)c2ccc(C)nc2c1O | Not Active |
| COc1c(S(=O)(=O)N(C)C)cc(S(=O)(=O)N(C)C)c2ccc(C)nc12 | Not Active |

Tested on: MOLT-4
Test: Cytotoxicity against human MOLT4 cells at 200 to 300 uM after 18 hrs by erythrosine B dye-exclusion test
Type: cell-based
Settings: molt-4, 18 h

| Compound | Activity |
| --- | --- |
| CNS(=O)(=O)c1cc(S(=O)(=O)NC)c2ccc(C)nc2c1OS(C)(=O)=O | Toxic |

Biological target: Cellular tumor antigen p53 (Homo sapiens) (UniProt P04637)
Test: Binding affinity to recombinant FLAG-p53 (unknown origin) assessed as confirmational change measured after 12 hrs by CD spectroscopy in presence of zinc(II) chelators
Settings: not given

| Compound | Activity |
| --- | --- |
| c1ccc(CNCCNCc2ccccn2)nc1 | Active |
| CNS(=O)(=O)c1cc(S(=O)(=O)NC)c2ccc(C)nc2c1O | inactive |
| COc1c(S(=O)(=O)N(C)C)cc(S(=O)(=O)N(C)C)c2ccc(C)nc12 | inactive |

Tested on: MOLT-4
Test: Inhibition of apoptosis in gamma-irradiated human MOLT4 cells compound treated at 100 to 400 uM for 3 hrs post gamma-irradiation after 18 hrs by erythrosine B dye-exclusion test
Type: functional, cell-based
Settings: not given

| Compound | inhibition |
| --- | --- |
| CNS(=O)(=O)c1cc(S(=O)(=O)NC)c2ccc(C)nc2c1O | Active |
| COc1c(S(=O)(=O)N(C)C)cc(S(=O)(=O)N(C)C)c2ccc(C)nc12 | Active |

Tested on: not listed separately
Test: Stability of the compound assessed as hydrolysis at 37 degC after 18 hrs
Type: physicochemical
Settings: not given

| Compound | Stability |
| --- | --- |
| CNS(=O)(=O)c1cc(S(=O)(=O)NC)c2ccc(C)nc2c1OS(C)(=O)=O | Unstable |

Source: ChEMBL document CHEMBL3351457, “Design and synthesis of 8-hydroxyquinoline-based radioprotective agents” (Bioorg Med Chem, 2014)
